Reference: patent publication US20030236218A1, “Aryl phosphate derivatives of d4T with selective activity against adenovirus and HIV” (priority 2002, published 2003)
“And” between values parts separate entries of the source, which are not always exact repeats. Equal entries are not always repeated. Where two headings read alike, the source gives them in different places.

Assays:
[1] = Stability in simulated intestinal fluid; format: in vitro ADME; settings: 100 μM, 37° C.
Description: The spiked fluids were then placed in a 37° C. water bath. At a predetermined time, 100 μI aliquots of the spiked gastric or intestinal fluid were extracted by adding 400 μl of acetone as discussed above.

[2] = Stability in whole blood; format: in vitro ADME; settings: spiked whole blood 37° C.; 250 μM compound 113, 100 μM Ala-d4T-MP (followed for 1 day)
Description: (§1) The whole blood samples were placed in a 37° C. water bath, while plasma samples were stored at −20° C. At a predetermined time, an aliquot (100 μl) of spiked whole blood or plasma was extracted by adding 400 μl of acetone to induce precipitation of proteins, as described above.

[3] = Stability in plasma; format: in vitro ADME; settings: spiked plasma; 250 μM compound 113, 100 μM Ala-d4T-MP (followed for 1 day)
Description: Plasma samples (200 μL) were mixed 1:4 with acetone (800 μL) and vortexed for at least 30 seconds. Following centrifugation, the supernatant was transferred into a clean tube and was dried under nitrogen. A 50 μL solution of 50% methanol in 200 mM HCl was used to reconstitute the extraction residue, and 40 μL was injected into the HPLC.
as §1

[4] = Pharmacokinetic studies in mice, oral administration; format: in vivo, Balb/c mice; settings: for AUC / Cmax / Tmax / t1/2: plasma analyte = label, after oral 100 mg/kg compound 113
Description: Female Balb/c mice (6-8 weeks old) from Taconic (Germantown, N.Y.) were housed in a controlled environment (12-hours of light/12-hours of dark, 22±1° C., 60±10% relative humidity), which is fully accredited by the USDA. All rodents were housed in microisolator cages (Lab Products, Inc., NJ) containing autoclaved bedding. The mice were allowed free access to autoclaved pellet food and tap water throughout the study. All animal care procedures conformed to the Guide for the Care and Use of Laboratory Animals (National Research Council, National Academy Press, Washington D.C. 1996).
Sampling time points were 0, 2, 5, 10, 15, 30, 45, 60, 120, 240 and 360 minutes after the gavage.
(§7) All collected blood samples were heparinized and centrifuged at 7000×g for 5 minutes to separate the plasma fraction from the whole blood. The plasma samples were then processed immediately using the extraction procedure described above.
(§8) Pharmacokinetic modeling and parameter calculations were carried out using the WinNonlin Professional Version 3.0 (Pharsight, Inc., Mountain, Calif.) pharmacokinetics software (Chen et al., Pharm. Res., 16, 1003 (1999); Chen et al., Pharm. Res., 16, 117 (1999); Chen et al., J. Clin. Pharmacol., 39, 1248 (1999); Uckun et al., Clin. Cancer Res., 5, 2954 (1999); and Uckun et al., J. Pharmacol. Exp. Ther., 291, 1301 (1999)). An appropriate model was chosen on the basis of the lowest sum of weighted squared residuals, the lowest Schwartz Criterion (SC), the lowest Akaike's Information Criterion (AIC) value, the lowest standard errors of the fitted parameters, and the dispersion of the residuals. The elimination half-life was estimated by linear regression analysis of the terminal phase of the plasma concentration-time profile. The area under the concentration-time curve (AUC) was calculated according to the linear trapezoidal rule between the first sampling time (0 hours) and the last sampling time plus C/k, where C is the concentration of the last sampling and k is the elimination rate constant. The systemic clearance (CL) was determined by dividing the dose by the AUC. The metabolic clearance of the parent drug, the formation clearance of the metabolite, the clearance elimination of the metabolite, and the distribution clearance of the metabolite were estimated by simultaneous fitting of the concentration of parent drug and metabolites as a function of time curve to pharmacokinetic models (see FIGS. 7A & 8A) specified as a system of differential equations (Gabrielsson & Weiner, Phamacokinetic/Phamacodynamic Data Analysis: Concepts and Applications, Swedish Pharmaceutical Press (1997)).

[5] = Pharmacokinetic studies in mice, intravenous administration; format: in vivo, Balb/c mice; settings: for AUC / CL / Cmax / Vss / t1/2 / Tmax: plasma analyte = label
Description: Female Balb/c mice (6-8 weeks old) from Taconic (Germantown, N.Y.) were housed in a controlled environment (12-hours of light/12-hours of dark, 22±1° C., 60±10% relative humidity), which is fully accredited by the USDA. All rodents were housed in microisolator cages (Lab Products, Inc., NJ) containing autoclaved bedding. The mice were allowed free access to autoclaved pellet food and tap water throughout the study.
Blood samples (˜500 μL) were obtained from the ocular venous plexus by retro-orbital venipuncture at 0, 2, 5, 10, 15, 30, 45, 60, 120, 240 and 360 minutes after intravenous injection.
as §7, §8

[6] = Hydrolysis rate in alkali conditions; format: physicochemical
Description: (§2) Statistical analysis. Each drug was tested at 6-7 different concentrations ranging from 0.0001 μM to 100 μM. Each assay was set up in triplicate wells and repeated 1-3 times. An IC50 value was calculated from each set of triplicate wells using nonlinear regression modeling of the exponential form of the linearized equation (Statview, SAS Institute, Inc., Cary, N.C.). Hydrolysis rates were determined by fitting single exponential decay equations to the disappearance of the compound in alkali conditions (all R^2 values greater than 0.85). The IC50 values obtained were correlated to the log transformed hydrolysis rate constants by fitting a linear model (JMP Software, SAS Institute Inc., Cary, N.C.). P-values less than 0.05 were deemed significant.

[7] = tested on: herpes simplex virus (HSV) Type I strain HF; assay: HSV-1 plaque formation assay in VERO cells; format: cell-based; settings: Human alphaherpesvirus 1, HSV-1, Strain HF
Source text: (§3) Virus stocks. The HIV-1 strain used in this study was HTLV-IIIB (Uckun et al., 1998 Antimicro. Agents and Chemother., 42:383-388). The non-HIV viruses included in the present study were the gancyclovir-sensitive cytomegalovirus (CMV) strain AD169 (ATCC VR-538); acyclovir-sensitive herpes simplex virus (HSV) Type I strain HF (ATCC VR-260); acyclovir-sensitive HSV Type II strain G (ATCC VR-734); adenovirus strain Type 5, strain adenoid 75 (ATCC VR-5); enterovirus strain, ECHO 30, strain Bastianni (ATCC VR-322); and respiratory syncytial virus (RSV), strain Long (ATCC VR-26).
(§4) Plaque formation assays. Plaque assays were used to examine the activity of the compounds against non-HIV viruses. The skin fibroblast cell line SF (ATCC CRL-2097) was used as a target for AD169, Adenovirus Type 5. […] cell line (ATCC CCL-81) was used as a target for HSV HF and G. The HEP-2 cell line (ATCC CCL-23) was used as a target for the RSV strain Long. These cell lines were cultured at 1×10^5 cells/well in 24-well (all but ECHO 30-infected SF) or 6-well (ECHO 30-infected SF) tissue culture plates with 0.9% methylcellulose or 0.4% SeaPlaque agarose semisolid support. […] Percent inhibition of plaque formation was calculated by comparing the plaque numbers from the test substance-treated infected cells with the plaque numbers from untreated infected cells (i.e., virus controls). The IC50 values were determined using the Statview statistics program (SAS Institute, Inc., Cary, N.C.).
(§5) Statistical analysis. […] An IC50 value was calculated from each set of triplicate wells using nonlinear regression modeling of the exponential form of the linearized equation (Statview, SAS Institute, Inc., Cary, N.C.). […]
(§6) The skin fibroblast cell line SF (ATCC CRL-2097) was used as a target for AD169, Adenovirus Type 5, and ECHO 30; the VERO cell line (ATCC CCL-81) was used as a target for HF and G; and the HEP-2 cell line (ATCC CCL-23) was used as target for the RSV strain Long. Results are expressed as the average IC50 values in μM. […]

[8] = tested on: HSV Type II strain G; assay: HSV-2 plaque formation assay in VERO cells; format: cell-based, herpes simplex virus Type II; settings: Human alphaherpesvirus 2, HSV-2, Strain G
Source text: as §3, §4, §5, §6

[9] = tested on: cytomegalovirus (CMV) strain AD169; assay: CMV plaque formation assay in SF cells; format: cell-based; settings: Human betaherpesvirus 5
Source text: as §3, §4, §5, §6

[10] = Octanol/water partition coefficient, shake flask method; format: physicochemical; settings: 4 hours at room temperature, read-out: Oct/Water (log P)
Description: HPLC purification was achieved using a reverse-phase Lichrospher column (250×4 mm, Hewlett-Packard, RP-18, Cat. #79925) and an isocratic flow (1 ml/minute) consisting of water (70%) and acetonitrile (30%). Melting points were determined using a Melt John's apparatus and are uncorrected. Column chromatography was performed using silica gel obtained from Baker Company. The octanol/water partition coefficient was determined by the shake flask method. The phosphoramidate analogs were added to 2 ml of water and 2 ml of octanol in a glass vial. The mixture was shaken for 4 hours at room temperature. The two phases were carefully separated and filtered through a Millipore filter and analyzed by HPLC. The partition coefficient was calculated using the ratio of the area under the curve for octanol and water, respectively.

[11] = tested on: enterovirus strain, ECHO 30, strain Bastianni; assay: Enterovirus plaque formation assay in SF cells; format: cell-based
Source text: as §3, §4, §5, §6

[12] = tested on: skin fibroblasts; assay: Cytotoxicity in skin fibroblasts (plaque assay); format: cell-based; settings: ADV plaque formation assay
Description: as §4, with “support. Minimum Essential Medium (MEM) with Earle's salts (Gibco), L-glutamine, non-essential amino acids, 2% heat-inactivated fetal bovine serum, 1% penicillin/streptomycin, and 0.05% gentamicin served as the culture medium. The incubation times were 3 days for HF, G, ECHO 30, and Long; and 7 days for AD169 and Adenovirus Type 5.” for “support.”

[13] = tested on: HIV-1 strain HTLV-IIIB; assay: In vitro anti-HIV-1 activity, p24 antigen assay in PBMNC; format: cell-based; settings: Human immunodeficiency virus 1, HIV-1, HTLV-IIIB, day 7
Source text: as §3
In vitro assays of anti-HIV-1 activity. Normal human peripheral blood mononuclear cells (PBMNC) from HIV-negative donors were cultured 72 hours in RPMI 1640 supplemented with 20% (v/v) heat-inactivated fetal bovine serum (FBS), 3% interleukin-2, 2 mM L-glutamine, 25 mM HEPES, 2 g/L NaHCO3, 50 Tg/mL gentamicin, and 4 Tg/mL phytohemagglutinin prior to exposure to HIV-1 at a multiplicity of infection (MOI) of 0.1 during a 1 hour adsorption period at 37° C. in a humidified 5% CO2 atmosphere. Subsequently, cells were cultured in 96-well microtiter plates (100 TL, 2×10^6 cells/mL) in the presence of various concentrations of compounds 113 or 609. Aliquots of culture supernatants were removed from the wells on the seventh day after infection for p24 antigen assays, as previously described. […] Percent viral inhibition was calculated by comparing the p24 values from untreated infected cells (i.e., virus controls).
Statistical analysis. […] An IC50 value was calculated from each set of triplicate wells using nonlinear regression modeling of the exponential form of the linearized equation (Statview, SAS Institute, Inc., Cary, N.C.). Hydrolysis rates were determined by fitting single exponential decay equations to the disappearance of the compound in alkali conditions (all R^2 values greater than 0.85). […]

[14] = tested on: respiratory syncytial virus (RSV), strain Long; assay: RSV plaque formation assay in HEP-2 cells; format: cell-based; settings: human respiratory syncytial virus, HEp-2
Source text: as §3, §4, §5, §6

[15] = Solubility; format: physicochemical; settings: read-out: Solubility
[16] = tested on: adenovirus strain Type 5, strain adenoid 75; assay: Adenovirus plaque formation assay in skin fibroblast cell line SF; format: cell-based, human adenovirus
Source text: as §3
Plaque formation assays. Plaque assays were used to examine the activity of the compounds against non-HIV viruses. The skin fibroblast cell line SF (ATCC CRL-2097) was used as a target for AD169, Adenovirus Type 5. […] cell line (ATCC CCL-81) was used as a target for HSV HF and G. The HEP-2 cell line (ATCC CCL-23) was used as a target for the RSV strain Long. These cell lines were cultured at 1×10^5 cells/well in 24-well (all but ECHO 30-infected SF) or 6-well (ECHO 30-infected SF) tissue culture plates with 0.9% methylcellulose or 0.4% SeaPlaque agarose semisolid support. Minimum Essential Medium (MEM) with Earle's salts (Gibco), L-glutamine, non-essential amino acids, 2% heat-inactivated fetal bovine serum, 1% penicillin/streptomycin, and 0.05% gentamicin served as the culture medium. The incubation times were 3 days for HF, G, ECHO 30, and Long; and 7 days for AD169 and Adenovirus Type 5. Plaque counting was performed with a 20X dissecting microscope for AD169, Type 5, ECHO 30, and RSV Long, and with a light box for HF and G. The fixative agent was crystal violet for all viruses, except for the CMV strain AD169 for which methylene blue was used. Percent inhibition of plaque formation was calculated by comparing the plaque numbers from the test substance-treated infected cells with the plaque numbers from untreated infected cells (i.e., virus controls). The IC50 values were determined using the Statview statistics program (SAS Institute, Inc., Cary, N.C.).
as §2, with “Hydrolysis rates were determined by fitting single exponential decay equations to the disappearance of the compound in alkali conditions (all R^2 values greater than 0.85).” left out
The skin fibroblast cell line SF (ATCC CRL-2097) was used as a target for AD169, Adenovirus Type 5, and ECHO 30; the VERO cell line (ATCC CCL-81) was used as a target for HF and G; and the HEP-2 cell line (ATCC CCL-23) was used as target for the RSV strain Long. Results are expressed as the average IC50 values in μM. Stavudine (STV) was included as a control.

[17] = estimate from composite curve of pooled data
[18] = after i.v. Ala-d4T-MP, model fit, C.V. of modeling in parentheses
[19] = after i.v. compound 113, model fit, C.V. of modeling in parentheses
[20] = after i.v. 75 mg/kg Ala-d4T-MP, estimate from composite curve of pooled data
[21] = after i.v. 75 mg/kg Ala-d4T-MP, mean ± S.E.M
[22] = after i.v. 100 mg/kg compound 113, estimate from composite curve of pooled data
[23] = after i.v. 100 mg/kg compound 113, mean ± S.E.M

Cc1cn([C@H]2C=C[C@@H](COP(=O)(O)NC(C)C(=O)O)O2)c(=O)[nH]c1=O (stereo partly drawn) [Ala-d4T-MP, alaninyl-d4T-monophosphate]
stability in intestinal fluid (in words) [1]: stable
stability in whole blood (in words) [2]: stable
stability in plasma (in words) [3]: stable
estimated bioavailability ([4]; metabolite = label, after oral administration of compound 113): approximately 12%
AUC [4, 17]: 1350.5 µM·min
Cmax [4, 17]: 12.7 µM
Tmax [4, 17]: 10.3 min
t1/2 [4, 17]: 66.4 min
AUC ([4]; mean ± S.E.M): (1355.4 ± 88.2) μM · min
Cmax ([4]; mean ± S.E.M): 15.6 µM
Tmax ([4]; mean ± S.E.M): (9.3 ± 0.9) min
t1/2 ([4]; mean ± S.E.M): (56.1 ± 8.5) min
share of CLm1 in the total systemic clearance ([5]; after i.v. Ala-d4T-MP): 99%
CLm1 (metabolic clearance of Ala-d4T-MP / formation clearance of d4T) [5, 18]: 15.6 ml/min/kg and 15.6 (16.6%) ml/min/kg
CLpd (distribution of Ala-d4T-MP to extravascular compartment) [5, 18]: 4.7 ml/min/kg and 4.7 (44.7%) ml/min/kg
CLm3 (metabolic clearance of Ala-d4T-MP / formation clearance of d4T) [5, 19]: 36.1 mL/min/kg
CLm1d (distribution of Ala-d4T-MP to the extravascular compartment) [5, 19]: 47.1 ml/min/kg and 62.0 (69.8%) ml/min/kg
fraction of parent converted to the metabolite (fm) ([5]; metabolite = label, after i.v. compound 113): 23%
AUC [5, 20]: 11648.7 µM·min
CL [5, 20]: 15.8 mL/min/kg
Cmax [5, 20]: 1210 µM
Vss [5, 20]: 275.5 mL/kg
t1/2 [5, 20]: 28.5 min
AUC [5, 21]: (11761.5 ± 447.2) μM · min
CL [5, 21]: (15.7 ± 0.6) ml/min/kg
Cmax [5, 21]: 1660 µM
Vss [5, 21]: (412.6 ± 126.3) ml/kg
t1/2 [5, 21]: (91.5 ± 54.5) min
AUC [5, 22]: 2854.8 µM·min
Cmax [5, 22]: 67.4 µM
Tmax [5, 22]: 5.9 min
t1/2 [5, 22]: 129.2 min
AUC [5, 23]: (2795.9 ± 361.2) μM · min
Cmax [5, 23]: 69.3 µM
Tmax [5, 23]: (5.1 ± 0.7) min
t1/2 [5, 23]: (138.8 ± 40.2) min

COC(=O)C(C)NP(=O)(OCC1C=CC(n2cc(C)c(=O)[nH]c2=O)O1)Oc1ccc(Cl)cc1 (stereo not drawn) [Compound 609, 5′-[4-Chlorophenylmethoxyalaninyl phosphate]-2′, 3′-didehydro-3′-deoxy thymidine]
Hydrolysis Rate [6]: 0.0216 min⁻¹
IC50 [7]: > 100 µM
IC50 [8]: > 100 µM
IC50 [9]: > 100 µM
logP at 4 h [10]: 0.64
IC50 [11]: > 100 µM
cytotoxicity (in words) [12]: without cytotoxicity
IC50 [13]: 1 nM
IC50 [14]: > 100 µM
Solubility [15]: 1400 µg/mL
IC50 ([16]; Adenovirus Type 5, 7 days, ± s.e., read-out: IC50, ADV-induced plaque formation): 26.7 nM and 27 nM
IC50 ([16]; read-out: IC50, ADV-induced plaque formation, Adenovirus Type 5, 7 days, ± s.e.): 2.7 ± 3 nM
